SMILES	melting point
COc1ccccc1NC(=O)Nc1cccc(-n2c(=O)c(CCC(=O)O)nc3cccnc32)c1 [Example 16(12), 2-(2-Carboxyethyl)-3-oxo-4-[3-[3-(2-methoxyphenyl)-ureido]phenyl]-3,4-dihydropyrido[2,3-b]pyrazine]	143 to 153 °C (dec.)
COc1ccccc1NC(=O)Nc1cccc(-n2c(=O)c(Cc3ccc(O)cc3)nc3cccnc32)c1 [Example 16(13), 2-(4-Hydroxyphenylmethyl)-3-oxo-4-[3-[3-(2-methoxyphenyl)ureido]phenyl]-3,4-dihydropyrido-[2,3-b]pyrazine]	220 to 221 °C
COc1ccccc1NC(=O)Nc1cccc(-n2c(=O)c(Cc3ccccc3[N+](=O)[O-])nc3cccnc32)c1 [Example 16(14), 2-(2-Nitrophenylmethyl)-3-oxo-4-[3-[3-(2-methoxyphenyl)ureido]phenyl]-3,4-dihydropyrido[2,3-b]pyrazine]	200 to 208 °C (dec.)
CC(=O)Nc1cccc(-n2c(=O)c(CCC(=O)O)nc3cccnc32)c1 [Example 16(15), 4-(3-Acetamidophenyl)-2-(2-carboxyethyl)-3-oxo-3,4-dihydropyrido[2,3-b]pyrazine]	264 to 269 °C (dec.)
CCOc1ccc2nc(Cc3ccccc3)c(=O)n(-c3cccc(NC(C)=O)c3)c2n1 [Example 16(16), 4-(3-Acetamidophenyl)-2-benzyl-6-ethoxy-3-oxo-3,4-dihydropyrido[2,3-b]pyrazine]	212 to 214 °C
COc1ccccc1NC(=O)Nc1cccc(-n2c(=O)c(CCC(=O)ON3C(=O)CCC3=O)nc3cccnc32)c1 [Example 23, 4-[3-[3-(2-methoxyphenyl)ureido]-phenyl]-3-oxo-2-[2-succinimidooxycarbonylethyl)-3,4-dihydropyrido[2,3-b]pyrazine]	235 to 237 °C
COc1ccccc1NC(=O)Nc1cccc(-n2c(=O)c(CCC(=O)N(C)C)nc3cccnc32)c1 [Example 24, 2-[2-(N,N-dimethylcarbamoyl)ethyl]-3-oxo-4-[3-[3-(2-methoxyphenyl)-ureido]phenyl]-3,4-dihydropyrido[2,3-b]pyrazine]	242 to 245 °C
CCOC(=O)CCc1nc2cccnc2n(-c2cccc(NC(=O)Nc3ccccc3OC)c2)c1=O [Example 33, 2-(2-ethoxycarbonylethyl)-3-oxo-4-[3-[3-(2-methoxyphenyl)-ureido]phenyl]-3,4-dihydropyrido[2,3-b]pyrazine]	175 °C
CCCOC(=O)CCc1nc2cccnc2n(-c2cccc(NC(=O)Nc3ccccc3OC)c2)c1=O [Example 34(1), 4-[3-[3-(2-Methoxyphenyl)ureido]phenyl]-3-oxo-2-(2-propyloxycarbonylethyl)-3,4-dihydropyrido[2,3-b]-pyrazine]	161 to 163 °C
COC(=O)CCc1nc2cccnc2n(-c2cccc(NC(=O)Nc3ccccc3OC)c2)c1=O [Example 34(2), 2-(2-Methoxycarbonylethyl)-3-oxo-4-[3-[3-(2-methoxyphenyl)ureido]phenyl]-3,4-dihydropyrido-[2,3-b]pyrazine]	194 to 196 °C
COc1ccccc1NC(=O)Nc1cccc(-n2c(=O)c(CCC(=O)N3CCN(C)CC3)nc3cccnc32)c1 [Example 35, 4-[3-[3-(2-methoxyphenyl)ureido]phenyl]-2-[2-(4-methylpiperazin-1-yl)carbonylethyl]-3-oxo-3,4-dihydropyrido[2,3-b]pyrazine]	195 to 197 °C
COC(=O)[C@@H]1CCCN1C(=O)CCc1nc2cccnc2n(-c2cccc(NC(=O)Nc3ccccc3OC)c2)c1=O [Example 36, 4-[3-[3-(2-Methoxyphenyl)ureido]phenyl]-3-oxo-2-[2[(2S)-2-methoxycarbonylpyrrolidin-1-yl]carbonylethyl]-3,4-dihydropyrido[2,3-b]pyrazine]	209 to 212 °C
CC(=O)Nc1ccc(F)c(-n2c(=O)c(Cc3cccnc3)nc3cccnc32)c1 [Example 45(15), 4-(5-Acetamido-2-fluorophenyl)-2-(3-pyridylmethyl)-3-oxo-3,4-dihydropyrido[2,3-b]pyrazine]	212 to 214 °C
Nc1ccc(F)c(-n2c(=O)c(Cc3cccnc3)nc3cccnc32)c1 [Example 47, 4-(5-Amino-2-fluorophenyl)-2-(3-pyridylmethyl)-3-oxo-3,4-dihydropyrido[2,3-b]pyrazine]	177 to 179 °C

Now from value to molecule:

melting point	SMILES
227 to 232 °C	O=C(Nc1cccc(-n2c(=O)c(Cc3cccnc3)nc3cccnc32)c1)Oc1ccccc1
264 to 268 °C	O=C(Nc1ccc(F)c(-n2c(=O)c(Cc3cccnc3)nc3cccnc32)c1)c1ccc2ccccc2c1 [Example 41(20), 4-[2-Fluoro-5-(2-naphthoylamino)phenyl]-2-(3-pyridylmethyl)-3-oxo-3,4-dihydropyrido[2,3-b]pyrazine]
155 to 156 °C	O=c1c(Cc2cccnc2)nc2cccnc2n1-c1cccc(-c2ccc3ccccc3c2)c1 [Example 43, 4-[3-(2-naphthyl)phenyl]-2-(3-pyridylmethyl)-3-oxo-3,4-dihydropyrido[2,3-b]pyrazine]
238 to 239 °C	COc1ccccc1NC(=O)Nc1cccc(-n2c(=O)c(Cc3ccccc3)nc3cccnc32)c1 [Example 45(6), 2-Benzyl-4-[3-[3-(2-methoxyphenyl)ureido]phenyl]-3-oxo-3,4-dihydropyrido[2,3-b]pyrazine]
165 to 166 °C	N#Cc1cccn1-c1cccc(-n2c(=O)c(Cc3ccccc3)nc3cccnc32)c1 [Example 45(7), 2-Benzyl-4-[3-(2-cyanopyrrol-1-yl)phenyl]-3-oxo-3,4-dihydropyrido[2,3-b]pyrazine]
197 to 198 °C	O=c1c(Cc2ccccc2)nc2cccnc2n1-c1cccc(-c2nc3ccccc3s2)c1 [Example 45(8), 2-Benzyl-4-[3-(benzothiazol-2-yl)phenyl]-3-oxo-3,4-dihydropyrido[2,3-b]pyrazine]
154 to 155 °C	O=C(c1ccccc1)c1cccc(-n2c(=O)c(Cc3ccccc3)nc3cccnc32)c1 [Example 45(9), 2-Benzyl-4-(3-benzoylphenyl)-3-oxo-3,4-dihydropyrido[2,3-b]pyrazine]
125 to 127 °C	O=c1c(Cc2ccccc2)nc2cccnc2n1-c1cccc(C(F)(F)F)c1 [Example 45(10), 2-Benzyl-4-(3-trifluoromethylphenyl)-3-oxo-3,4-dihydropyrido[2,3-b]pyrazine]
157 to 159 °C	CC(=O)c1cn(-c2cccc(-n3c(=O)c(Cc4ccccc4)nc4cccnc43)c2)c2ccccc12 [Example 45(11), 2-Benzyl-4-[3-(3-acetylindol-1-yl)phenyl]-3-oxo-3,4-dihydropyrido[2,3-b]pyrazine]
208 to 210 °C	COC(=O)c1cccc(-n2c(=O)c(Cc3cccnc3)nc3cccnc32)c1 [Example 45(12), 4-(3-Methoxycarbonylphenyl)-2-(3-pyridylmethyl)-3-oxo-3,4-dihydropyrido[2,3-b]pyrazine]
128 to 130 °C	O=c1c(Cc2cccnc2)nc2cccnc2n1-c1cccc(-n2cccc2)c1 [Example 45(13), 4-[3-(1-Pyrrolyl)phenyl]-2-(3-pyridylmethyl)-3-oxo-3,4-dihydropyrido[2,3-b]pyrazine]
88 to 90 °C	O=c1c(Cc2cccnc2)nc2cccnc2n1-c1cccc(C(F)(F)F)c1 [Example 45(14), 4-(3-Trifluoromethylphenyl)-2-(3-pyridylmethyl)-3-oxo-3,4-dihydropyrido[2,3-b]pyrazine]
142 to 143 °C	O=C(c1ccccc1)c1cccc(-n2c(=O)c(Cc3cccnc3)nc3cccnc32)c1 [Example 45(16), 4-(3-Benzoylphenyl)-2-(3-pyridylmethyl)-3-oxo-3,4-dihydropyrido[2,3-b]pyrazine]
153 to 156 °C	CC(=O)c1cn(-c2cccc(-n3c(=O)c(Cc4cccnc4)nc4cccnc43)c2)c2ccccc12 [Example 45(17), 4-[3-(3-Acetylindol-1-yl)phenyl]-2-(3-pyridylmethyl)--3-oxo-3,4-dihydropyrido[2,3-b]pyrazine]
166 to 168 °C	O=c1c(Cc2cccnc2)nc2cccnc2n1-c1cccc(-n2ccc3ccccc32)c1 [Example 45(18), 4-[3-(1-Indolyl)phenyl]-2-(3-pyridylmethyl)-3-oxo-3,4-dihydropyrido[2,3-b]pyrazine]
162 to 165 °C	O=c1c(Cc2cccnc2)nc2cccnc2n1-c1cccc(-c2cccc3ccccc23)c1 [Example 45(19), 4-[3-(1-Naphthyl)phenyl]-2-(3-pyridylmethyl)-3-oxo-3,4-dihydropyrido[2,3-b]pyrazine]
168 to 170 °C	Nc1cccc(-n2c(=O)c(Cc3cccnc3)nc3cccnc32)c1 [Example 46, 4-(3-aminophenyl)-2-(3-pyridylmethyl)-3-oxo-3,4-dihydropyrido[2,3-b]pyrazine]
146 to 149 °C	O=C(Nc1ccc(F)c(-n2c(=O)c(Cc3cccnc3)nc3cccnc32)c1)Nc1ccccc1F [Example 50(1), 4-[2-Fluoro-5-[3-(2-fluorophenyl)ureido]phenyl]-2-(3-pyridylmethyl)-3-oxo-3,4-dihydropyrido[2,3-b]pyrazine]
152 to 155 °C	COc1ccccc1NC(=O)Nc1ccc(F)c(-n2c(=O)c(Cc3cccnc3)nc3cccnc32)c1 [Example 50(2), 4-[2-Fluoro-5-[3-(2-methoxyphenyl)ureido]phenyl]-2-(3-pyridylmethyl)-3-oxo-3,4-dihydropyrido[2,3-b]pyrazine]
188 to 189 °C	O=C(Nc1cccc(-n2c(=O)c(Cc3cccnc3)nc3cccnc32)c1)Nc1ccccc1[N+](=O)[O-] [Example 50(3), 4-[3-[3-(2-Nitrophenyl)ureido]phenyl]-2-(3-pyridylmethyl)-3-oxo-3,4-dihydropyrido[2,3-b]pyrazine]
163 to 169 °C	COc1ccccc1NC(=O)Nc1cccc(-n2c(=O)c(Cc3cccnc3)nc3cccnc32)c1 [Example 50(4), 4-[3-[3-(2-Methoxyphenyl)ureido]phenyl]-2-(3-pyridylmethyl)-3-oxo-3,4-dihydropyrido[2,3-b]pyrazine]
228 to 231 °C	COc1ccc2cc(-c3cccc(-n4c(=O)c(Cc5cccnc5)nc5cccnc54)c3)ccc2c1 [Example 54(24), 4-[3-(6-Methoxy-2-naphthyl)phenyl]-2-(3-pyridylmethyl)-3-oxo-3,4-dihydropyrido[2,3-b]pyrazine]

— patent US6727245B2, “Heterobicyclic derivatives” (Fujisawa Pharmaceutical Co., Ltd., priority 1994, dated 2004)
